The results in this text go back to ChEMBL document CHEMBL6120940, “Discovery of N-Aryl-N'-[4-(aryloxy)cyclohexyl]squaramide-Based Inhibitors of LXR/SREBP-1c Signaling Pathway Ameliorating Steatotic Liver Disease: Navigating the Role of SIRT6 Activation” (J Med Chem, 2024).

Series [1] can be described thus: Downregulation of SREBP-1c mRNA expression in human HepG2 cells at 10 uM pretreated with compound for 30 mins followed by T0901317 addition and measured after 12 hrs by RT-qPCR analysis relative to control. The settings on record: time 12.5 hrs. The format is functional. (In general: Quantitative PCR measures a nucleic acid by following its amplification.)
The target in series [2] is T1, Sterol regulatory element-binding protein 1 (Homo sapiens) (UniProt P36956).
T1 sequence (whole entry): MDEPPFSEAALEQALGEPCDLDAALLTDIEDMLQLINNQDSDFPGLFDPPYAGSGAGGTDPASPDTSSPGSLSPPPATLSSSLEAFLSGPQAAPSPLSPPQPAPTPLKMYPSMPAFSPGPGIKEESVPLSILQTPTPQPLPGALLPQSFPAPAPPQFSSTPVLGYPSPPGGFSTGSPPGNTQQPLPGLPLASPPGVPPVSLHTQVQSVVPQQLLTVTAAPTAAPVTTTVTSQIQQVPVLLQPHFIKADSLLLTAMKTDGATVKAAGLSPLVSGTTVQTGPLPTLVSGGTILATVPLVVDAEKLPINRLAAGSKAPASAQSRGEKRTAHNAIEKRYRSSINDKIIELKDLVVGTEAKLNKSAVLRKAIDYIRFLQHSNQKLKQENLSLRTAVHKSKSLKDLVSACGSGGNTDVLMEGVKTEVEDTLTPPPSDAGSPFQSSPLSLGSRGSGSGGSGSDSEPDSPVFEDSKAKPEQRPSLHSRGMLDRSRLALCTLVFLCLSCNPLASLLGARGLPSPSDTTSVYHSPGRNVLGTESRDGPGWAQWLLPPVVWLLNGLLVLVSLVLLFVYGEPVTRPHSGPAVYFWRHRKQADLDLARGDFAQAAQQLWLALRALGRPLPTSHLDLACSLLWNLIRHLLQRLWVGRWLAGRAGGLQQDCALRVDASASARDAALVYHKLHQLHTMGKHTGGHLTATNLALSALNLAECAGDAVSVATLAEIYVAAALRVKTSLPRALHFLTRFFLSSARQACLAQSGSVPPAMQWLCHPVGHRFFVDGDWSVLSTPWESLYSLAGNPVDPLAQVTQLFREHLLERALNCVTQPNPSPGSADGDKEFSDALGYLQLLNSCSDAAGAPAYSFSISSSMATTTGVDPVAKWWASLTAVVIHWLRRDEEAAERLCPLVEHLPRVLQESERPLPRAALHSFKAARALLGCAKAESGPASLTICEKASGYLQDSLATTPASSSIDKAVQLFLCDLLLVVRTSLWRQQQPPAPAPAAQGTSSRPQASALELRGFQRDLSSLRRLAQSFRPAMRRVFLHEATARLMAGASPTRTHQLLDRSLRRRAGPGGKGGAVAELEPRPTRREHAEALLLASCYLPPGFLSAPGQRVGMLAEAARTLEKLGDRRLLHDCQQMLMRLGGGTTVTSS
The experiment in a line: Inhibition of SREBP-1c transcriptional activity in human HepG2 cells expressing LXRalpha/RXRalpha assessed as reduction in SRE-luciferase level at 10 uM pretreated with compound for 30 mins followed by T0901317 addition and measured after 12 hrs by Dual-Glo luciferase assay relative to control. It counts as cell-based. The note with it: time 12.5 hrs.

Series [3] in a line: Metabolic stability in human liver microsomes at 1 uM measured after 30 mins in presence of NADPH regeneration system by LC-MS/MS analysis. The format is ADME, Microsome. The note with it: read-out: Stability.
Series [4] can be described thus: Metabolic stability in rat liver microsomes at 1 uM measured after 30 mins in presence of NADPH regeneration system by LC-MS/MS analysis. The format is ADME, Microsome. The settings on record: read-out: Stability. On the technique in general: Liver microsomes are a subcellular fraction often used to study metabolism.
Series [5] is described as follows: Metabolic stability in mouse liver microsomes at 1 uM measured after 30 mins in presence of NADPH regeneration system by LC-MS/MS analysis. The settings on record: read-out: Stability. It counts as ADME, Microsome.
Series [6] can be described thus: Stability in human plasma measured after 120 mins by LC-MS/MS analysis. The format is ADME, cell-free. The settings on record: read-out: Stability.
Series [7] can be described thus: Stability in rat plasma measured after 120 mins by LC-MS/MS analysis. The settings on record: read-out: Stability. The format is ADME, cell-free.
Series [8] is described as follows: Stability in mouse plasma measured after 120 mins by LC-MS/MS analysis. The note with it: read-out: Stability. It counts as ADME, cell-free.
For another series, the target named is T2, CYP1A2 (Homo sapiens, UniProt P05177).
T2 sequence (P05177 whole entry): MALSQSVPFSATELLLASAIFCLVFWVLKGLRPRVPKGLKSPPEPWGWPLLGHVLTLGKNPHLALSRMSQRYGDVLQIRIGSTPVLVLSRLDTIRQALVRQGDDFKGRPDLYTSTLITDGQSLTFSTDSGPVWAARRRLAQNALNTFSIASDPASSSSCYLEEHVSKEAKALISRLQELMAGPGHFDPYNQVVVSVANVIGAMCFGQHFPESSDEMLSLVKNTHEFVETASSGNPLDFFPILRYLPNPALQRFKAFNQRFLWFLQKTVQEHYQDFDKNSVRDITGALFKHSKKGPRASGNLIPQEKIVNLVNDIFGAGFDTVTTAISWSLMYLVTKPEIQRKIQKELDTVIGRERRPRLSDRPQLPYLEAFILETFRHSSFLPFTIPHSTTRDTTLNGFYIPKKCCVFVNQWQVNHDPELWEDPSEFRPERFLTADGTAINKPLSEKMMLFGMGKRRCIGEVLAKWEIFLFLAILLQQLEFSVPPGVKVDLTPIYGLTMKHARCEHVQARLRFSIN
Description: Inhibition of CYP1A2 in human liver microsomes at 10 uM using phenacetin as substrate preincubated for 5 mins followed by NADPH generating system addition and measured after 15 mins relative to control. It counts as ADME, Microsome. The note with it: probe phenacetin, time 20 min.

Another series concerns the target CYP2C9 (Homo sapiens, UniProt P11712). Description: Inhibition of CYP2C9 in human liver microsomes at 10 uM using diclofenac as substrate preincubated for 5 mins followed by NADPH generating system addition and measured after 15 mins relative to control. The format is ADME, Microsome. The settings on record: probe diclofenac, time 20 min.
In a further series the target is CYP2C19 (Homo sapiens, UniProt P33261). Description: Inhibition of CYP2C19 in human liver microsomes at 10 uM using S-mephenytoin as substrate preincubated for 5 mins followed by NADPH generating system addition and measured after 15 mins relative to control. It counts as ADME, Microsome. The settings on record: probe S-mephenytoin, time 20 min.
For a further series, the target named is CYP2D6 (Homo sapiens, UniProt P10635). Description: Inhibition of CYP2D6 in human liver microsomes at 10 uM using dextromethorphan as substrate preincubated for 5 mins followed by NADPH generating system addition and measured after 15 mins relative to control. The settings on record: probe dextromethorphan, time 20 min. It counts as ADME, Microsome.
The target in another series is CYP3A4 (Homo sapiens, UniProt P08684). Description: Inhibition of CYP3A4 in human liver microsomes at 10 uM using midazolam as substrate preincubated for 5 mins followed by NADPH generating system addition and measured after 15 mins relative to control. The format is ADME, Microsome. The note with it: probe midazolam, time 20 min.
For series [9], the target named is Voltage-gated inwardly rectifying potassium channel KCNH2 (Homo sapiens, UniProt Q12809). The experiment in a line: Inhibition of human ERG expressing HEK cells by whole-cell patch clamp assay. The format is toxicity, cell-based. For orientation: In patch-clamp work, channel activity is measured electrically.
Sequence of Voltage-gated inwardly rectifying potassium channel KCNH2 (Q12809 whole entry): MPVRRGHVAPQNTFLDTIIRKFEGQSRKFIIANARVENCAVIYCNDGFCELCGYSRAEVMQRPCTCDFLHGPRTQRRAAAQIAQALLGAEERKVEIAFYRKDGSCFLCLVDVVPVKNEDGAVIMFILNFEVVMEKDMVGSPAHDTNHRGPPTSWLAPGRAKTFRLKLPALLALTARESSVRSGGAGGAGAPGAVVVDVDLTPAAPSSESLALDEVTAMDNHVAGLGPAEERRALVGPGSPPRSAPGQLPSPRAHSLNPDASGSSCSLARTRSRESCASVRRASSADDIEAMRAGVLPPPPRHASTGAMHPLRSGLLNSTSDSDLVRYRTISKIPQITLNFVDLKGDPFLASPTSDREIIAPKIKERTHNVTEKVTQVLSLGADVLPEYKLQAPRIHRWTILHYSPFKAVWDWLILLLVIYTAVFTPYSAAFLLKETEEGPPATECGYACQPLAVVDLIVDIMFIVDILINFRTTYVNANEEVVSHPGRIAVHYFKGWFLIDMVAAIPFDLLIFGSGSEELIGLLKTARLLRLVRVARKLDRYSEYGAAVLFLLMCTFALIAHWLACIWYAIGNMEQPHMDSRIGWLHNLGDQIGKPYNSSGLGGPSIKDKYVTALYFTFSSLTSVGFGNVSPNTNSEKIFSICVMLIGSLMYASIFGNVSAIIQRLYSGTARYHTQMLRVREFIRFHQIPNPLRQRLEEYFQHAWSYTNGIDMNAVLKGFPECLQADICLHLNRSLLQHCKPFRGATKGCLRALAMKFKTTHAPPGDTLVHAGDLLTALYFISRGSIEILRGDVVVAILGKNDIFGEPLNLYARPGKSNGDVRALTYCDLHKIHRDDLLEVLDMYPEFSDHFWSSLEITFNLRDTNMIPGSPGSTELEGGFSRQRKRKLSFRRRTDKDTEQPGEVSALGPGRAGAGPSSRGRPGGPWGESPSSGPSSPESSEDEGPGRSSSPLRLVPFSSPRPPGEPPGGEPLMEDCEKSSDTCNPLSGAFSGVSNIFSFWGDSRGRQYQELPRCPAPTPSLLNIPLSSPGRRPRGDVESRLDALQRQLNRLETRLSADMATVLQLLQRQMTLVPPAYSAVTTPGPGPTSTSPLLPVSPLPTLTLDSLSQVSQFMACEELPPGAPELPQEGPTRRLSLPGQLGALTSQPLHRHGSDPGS

Sequence of CYP2C9 (P11712 whole entry): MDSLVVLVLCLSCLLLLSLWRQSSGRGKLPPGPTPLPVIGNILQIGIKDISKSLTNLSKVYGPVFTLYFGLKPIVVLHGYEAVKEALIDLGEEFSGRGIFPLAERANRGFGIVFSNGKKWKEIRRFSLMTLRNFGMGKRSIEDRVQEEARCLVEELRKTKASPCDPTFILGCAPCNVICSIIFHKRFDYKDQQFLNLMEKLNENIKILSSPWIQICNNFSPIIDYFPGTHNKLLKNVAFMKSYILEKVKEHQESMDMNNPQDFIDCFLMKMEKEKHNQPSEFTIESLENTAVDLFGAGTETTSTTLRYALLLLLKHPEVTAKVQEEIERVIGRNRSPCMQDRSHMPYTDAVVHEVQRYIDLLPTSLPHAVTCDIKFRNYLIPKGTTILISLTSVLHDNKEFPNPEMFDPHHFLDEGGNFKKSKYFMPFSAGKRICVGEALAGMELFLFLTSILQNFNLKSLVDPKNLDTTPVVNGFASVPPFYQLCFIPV
Sequence of CYP2C19 (P33261 whole entry): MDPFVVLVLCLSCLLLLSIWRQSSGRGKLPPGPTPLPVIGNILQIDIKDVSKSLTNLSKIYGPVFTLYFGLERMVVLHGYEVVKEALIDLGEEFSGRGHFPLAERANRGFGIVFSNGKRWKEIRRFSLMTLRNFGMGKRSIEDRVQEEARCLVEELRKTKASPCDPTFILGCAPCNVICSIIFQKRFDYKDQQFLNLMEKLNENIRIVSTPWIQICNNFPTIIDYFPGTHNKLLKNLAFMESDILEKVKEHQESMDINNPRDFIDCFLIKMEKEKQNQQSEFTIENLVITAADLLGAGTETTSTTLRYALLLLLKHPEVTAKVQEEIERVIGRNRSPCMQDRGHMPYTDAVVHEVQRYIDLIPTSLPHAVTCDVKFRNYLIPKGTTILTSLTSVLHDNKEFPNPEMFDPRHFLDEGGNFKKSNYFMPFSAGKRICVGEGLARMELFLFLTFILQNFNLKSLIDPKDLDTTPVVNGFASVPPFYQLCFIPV
Sequence of CYP3A4 (P08684 whole entry): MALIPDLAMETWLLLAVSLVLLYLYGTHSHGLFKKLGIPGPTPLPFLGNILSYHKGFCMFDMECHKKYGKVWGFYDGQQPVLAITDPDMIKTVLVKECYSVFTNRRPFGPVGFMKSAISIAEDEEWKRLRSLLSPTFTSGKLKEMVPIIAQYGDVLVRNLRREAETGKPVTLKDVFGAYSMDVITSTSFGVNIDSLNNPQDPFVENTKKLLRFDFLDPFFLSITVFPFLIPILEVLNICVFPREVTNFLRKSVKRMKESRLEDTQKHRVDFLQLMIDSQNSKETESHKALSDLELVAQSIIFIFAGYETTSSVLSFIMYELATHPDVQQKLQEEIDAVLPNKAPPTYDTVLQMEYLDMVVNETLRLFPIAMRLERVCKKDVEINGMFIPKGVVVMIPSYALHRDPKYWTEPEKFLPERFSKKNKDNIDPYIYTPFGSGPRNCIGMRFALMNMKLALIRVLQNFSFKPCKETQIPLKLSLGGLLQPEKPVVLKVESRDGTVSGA
Sequence of CYP2D6 (P10635 whole entry): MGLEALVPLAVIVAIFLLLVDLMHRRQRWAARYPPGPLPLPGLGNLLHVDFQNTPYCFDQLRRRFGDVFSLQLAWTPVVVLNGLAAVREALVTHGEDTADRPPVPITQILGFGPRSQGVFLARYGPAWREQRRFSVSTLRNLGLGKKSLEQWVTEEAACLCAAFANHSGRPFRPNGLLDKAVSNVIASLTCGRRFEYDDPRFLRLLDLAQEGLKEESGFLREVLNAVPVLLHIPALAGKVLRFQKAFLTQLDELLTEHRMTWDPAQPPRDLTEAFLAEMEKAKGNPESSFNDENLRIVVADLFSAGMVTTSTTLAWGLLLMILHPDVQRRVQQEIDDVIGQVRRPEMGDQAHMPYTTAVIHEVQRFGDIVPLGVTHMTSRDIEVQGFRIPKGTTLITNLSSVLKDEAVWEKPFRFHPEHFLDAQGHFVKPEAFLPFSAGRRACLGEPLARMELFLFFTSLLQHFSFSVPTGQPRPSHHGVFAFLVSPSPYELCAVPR

Regarding `COc1ccccc1Nc1c(N[C@H]2CC[C@H](Oc3ccc(C#N)cc3)CC2)c(=O)c1=O`, the Activity in series [1] was determined as 7.4%. Moreover, the inhibition – broadly, the relative decrease from the control value, in per cent – in [2] came out at 32.6%. The remaining at 0.5 h, 1 µM in [3] is 15.5%; in series [4], 26.5%; in [5], 31%. Further, the remaining at 2 h in series [6] was 96.3%; in [7] it was 93.1%; in series [8] it was more than 100%. In addition, the inhibition at 0.25 h, 10 µM against CYP1A2 was more than 100%; at CYP2C9, 56.9%; at CYP2C19 it was 38.9%; against CYP2D6, 86.2%; against CYP3A4, 84%. Besides, in series [9], it took 493 nM to reach half-maximal inhibition (IC50).
